Key:
[1] = tested on: human embryonic stem cells line H1; experiment: Definitive endoderm differentiation of H1 cells, cluster seeding (activin A/WNT-3a, RPMI): FACS for CXCR4 and CD9; type: cell-based; conditions: for % CXCR4 + CD9− / % CXCR4 − CD9+ / % CXCR4 − CD9−: cluster seeding, day 4
Method: Cells of the human embryonic stem cells line H1 (p40-p52) were cultured on […]® (1:30 dilution) (BD Biosciences; Cat #356231)-coated dishes in MEF-CM (mouse embryonic fibroblast conditioned media) supplemented with 16 ng/ml of FGF2 (Catalog#100-18B, PeproTech, NJ), and differentiated into cells expressing markers characteristic of the definitive endoderm lineage as follows: • a. RPMI medium supplemented with 2% fatty acid-free BSA (Catalog#68700, Proliant, IA), and 100 ng/ml activin A (R&D Systems, MN) plus 20 ng/ml WNT-3a (Catalog#1324-WN-002, R&D Systems, MN) for one day, then • b. RPMI medium supplemented with 2% BSA and 100 ng/ml activin A for an additional three days.
[…] ITS-X is a serum replacement supplemented comprised of 1 mg/ml of Insulin, 0.55 mg/ml of Transferrin, 0.00067 mg/ml of Sodium Selenite, […] As a control, 0.2% FBS (Catalogue#SH30070.03, Hyclone, UT) was used for day 1 of differentiation, 0.5% FBS at day 2 and 2% FBS was used for days 3-4. The FBS treated cultures were not supplemented with ITS-X.
At day 4, samples were collected for FACS and gene expression analysis using real-time PCR.
The cell surface receptor CXCR4 has been previously shown to be a marker of definitive endoderm. CD9 is a marker for undifferentiated ES cells. Consequently, an increase in the expression of CXCR4, and a decrease in the expression of CD9 in a population of cells is indicative for the formation of definitive endoderm.

[2] = tested on: human embryonic stem cells line H1; experiment: Definitive endoderm differentiation of H1 cells, cluster seeding: real-time PCR gene expression; type: cell-based; conditions: 1-100 ng/ml of insulin, BSA medium, day 4, real-time PCR
Method: Cells of the human embryonic stem cells line H1 (p40-p52) were cultured on MATRIGEL® (1:30 dilution) (BD Biosciences; Cat #356231)-coated dishes in MEF-CM (mouse embryonic fibroblast conditioned media) supplemented with 16 ng/ml of FGF2 (Catalog#100-18B, PeproTech, NJ), and differentiated into cells expressing markers characteristic of the definitive endoderm lineage as follows: • a. RPMI medium supplemented with 2% fatty acid-free BSA (Catalog#68700, Proliant, IA), and 100 ng/ml activin A (R&D Systems, MN) plus 20 ng/ml WNT-3a (Catalog#1324-WN-002, R&D Systems, MN) for one day, then • b. RPMI medium supplemented with 2% BSA and 100 ng/ml activin A for an additional three days.
In some of the cultures, the cells were treated with the following dilution of ITS-X (Catalogue#51500-056, Invitrogen, CA): 0, 1:10^6, 1:5×10^5, 1:10^5, 1:10^4. ITS-X is a serum replacement supplemented comprised of 1 mg/ml of Insulin, 0.55 mg/ml of Transferrin, 0.00067 mg/ml of Sodium Selenite, and 0.2 mg/ml of Ethanolamine The range of dilutions of ITS-X correspond to 0, 1 ng/ml, 2 ng/ml, 10 ng/ml, and 100 ng/ml of insulin. As a control, 0.2% FBS (Catalogue#SH30070.03, Hyclone, UT) was used for day 1 of differentiation, 0.5% FBS at day 2 and 2% FBS was used for days 3-4. The FBS treated cultures were not supplemented with ITS-X. […]

[3] = tested on: human embryonic stem cells line H1; experiment: Definitive endoderm differentiation of H1 cells, single cell seeding (activin A/WNT-3a, MCDB-131): FACS for CXCR4 and CD9; type: cell-based; conditions: for % CXCR4 + CD9− / % CXCR4 − CD9+ / % CXCR4 − CD9−: single cell seeding, day 4
Method: (§1) Cells of the human embryonic stem cells line H1 (p40-p52) were seeded as single cells at a density of 100000 cells/cm^2 on MATRIGEL® (1:30 dilution) (BD Biosciences; Cat #356231)-coated dishes in MEF-CM (mouse embryonic fibroblast conditioned media) supplemented with 16 ng/ml of FGF2 (Catalog#100-18B, PeproTech, NJ) and 10 μM of Y27632 (Rock inhibitor, Catalogue#Y0503, Sigma, Mo.). 72 hrs post seeding, cultures were differentiated into definitive endoderm (DE) as follows: • a. MCDB-131 (Catalogue#10372-019, Invitrogen, CA) medium supplemented with 2% fatty acid-free BSA (Catalog#68700, Proliant, IA), 0.0025 g/ml sodium bicarbonate (Catalogue #S3187, Sigma, Mo.), 1× GlutaMax™ (Catalogue #35050-079, Invitrogen, Ca) and 100 ng/ml activin A (R&D Systems, MN) plus 20 ng/ml WNT-3a (Catalog#1324-WN-002, R&D Systems, MN) for one day, then • b. MCDB-131 medium supplemented with 2% BSA, sodium bicarbonate, Glutamax, and 100 ng/ml activin A for an additional three days.
(§2) In some of the cultures, the cells were treated with the following concentrations of insulin (Catalogue#19278, Sigma, Mo.): 0, 1, 10, 100, 1000, or 10000 ng/ml. At day 4, samples were collected for FACS and gene expression analysis using real-time PCR.
FIG. 5 depicts the CXCR4 and CD9 expression profile of the various treatments as measured by FACS analysis.

[4] = tested on: human embryonic stem cells line H1; experiment: Definitive endoderm differentiation of H1 cells, single cell seeding (activin A/WNT-3a): real-time PCR gene expression; type: cell-based; conditions: BSA medium
Method: as §1, §2

ES cells = conditions: 200 ng/ml of insulin added to 2% FBS, MEF-CM, activin A; cited from earlier work
[5] = BSA + 100 ng/ml insulin (ITS-X)
[6] = super physiological insulin (1-10 μg/ml), BSA medium

insulin
% CXCR4 + CD9− ([1]; BSA + 1 ng/ml insulin (ITS-X)): 70%
% CXCR4 − CD9+ ([1]; BSA + 1 ng/ml insulin (ITS-X)): 13%
% CXCR4 − CD9− ([1]; BSA + 1 ng/ml insulin (ITS-X)): 10%
% CXCR4 + CD9− ([1]; BSA + 5 ng/ml insulin (ITS-X)): 67%
% CXCR4 − CD9+ ([1]; BSA + 5 ng/ml insulin (ITS-X)): 15%
% CXCR4 − CD9− ([1]; BSA + 5 ng/ml insulin (ITS-X)): 12%
% CXCR4 + CD9− ([1]; BSA + 10 ng/ml insulin (ITS-X)): 69%
% CXCR4 − CD9+ ([1]; BSA + 10 ng/ml insulin (ITS-X)): 13%
% CXCR4 − CD9− ([1]; BSA + 10 ng/ml insulin (ITS-X)): 13%
% CXCR4 + CD9− [1, 5]: 73%
% CXCR4 − CD9+ [1, 5]: 12%
% CXCR4 − CD9− [1, 5]: 9%
expression of CXCR4, or CD9 ([1]; BSA medium, any concentration of insulin tested, FACS): no significant change
expression of markers of definitive endoderm (FOXA2, SOX17, CXCR4), mesenchyme (T), extraembryonic (SOX7, AFP) [2]: did not significantly affect
% CXCR4 + CD9− ([3]; BSA + 1 ng/ml insulin): 96%
% CXCR4 − CD9+ ([3]; BSA + 1 ng/ml insulin): 1.5%
% CXCR4 − CD9− ([3]; BSA + 1 ng/ml insulin): 0.7%
% CXCR4 + CD9− ([3]; BSA + 10 ng/ml insulin): 95%
% CXCR4 − CD9+ ([3]; BSA + 10 ng/ml insulin): 1.4%
% CXCR4 − CD9− ([3]; BSA + 10 ng/ml insulin): 0.7%
% CXCR4 + CD9− ([3]; BSA + 100 ng/ml insulin): 90%
% CXCR4 − CD9+ ([3]; BSA + 100 ng/ml insulin): 4.1%
% CXCR4 − CD9− ([3]; BSA + 100 ng/ml insulin): 2%
% CXCR4 + CD9− ([3]; BSA + 1 μg/ml insulin): 90%
% CXCR4 − CD9+ ([3]; BSA + 1 μg/ml insulin): 3.6%
% CXCR4 − CD9− ([3]; BSA + 1 μg/ml insulin): 2.2%
% CXCR4 + CD9− ([3]; BSA + 10 μg/ml insulin): 84%
% CXCR4 − CD9+ ([3]; BSA + 10 μg/ml insulin): 6.6%
% CXCR4 − CD9− ([3]; BSA + 10 μg/ml insulin): 4.7%
CXCR4−CD9+ fraction [3, 6]: increase in expression
percentage of CXCR4+CD9− cells [3, 6]: decrease in the percentage
expression of markers associated with definitive endoderm (FOXA2, SOX17, CER1, CXCR4) ([4]; 1-100 ng/ml insulin, day 4): did not significantly affect
expression of NANOG ([4]; 1-10 μg/ml of insulin): did increase expression
decrease of the expression of SOX17 (ES cells): approximately 70%
